In ChEMBL document CHEMBL1127553, “Derivatives of a novel cyclopeptolide. 2. Synthesis, activity against multidrug resistance in CHO and KB cells in vitro, and structure-activity relationships” (1994):
Non-standard residues stand in square brackets, D forms with d. Residues, ends and D or L forms follow the SMILES beside them. *: point of attachment. NMeI = CC[C@H](C)[C@H](NC)C(=O)O; NMeD = CN[C@@H](CC(=O)O)C(=O)O; NMeV = CN[C@H](C(=O)O)C(C)C; Pip = O=C(O)[C@@H]1CCCCN1; dLac = C[C@@H](O)C(=O)O; OtBu = CC(C)(C)O*

What was measured:
[1] = system: CHO; assay: The sensitizing capacity for colchicine treatment of parental (PAR)CHO cells at concentration 1.0 (mg/L); format: functional, Cricetulus griseus
[2] = system: KB; assay: The sensitizing capacity of compound for colchicine treatment of multi drug resistance in KB cell was measured at concentration 1.0(mg/L); format: functional, Homo sapiens
[3] = system: CHO; assay: The sensitizing capacity for colchicine treatment of multi drug resistance (MDR) CHO cell at concentration 1.0(mg/L).; format: functional, Cricetulus griseus
[4] = system: CHO; assay: The sensitizing capacity for colchicine treatment of multi drug resistance(MDR) in CHO cell at concentration 0.1(mg/L).; format: functional, Cricetulus griseus
[5] = system: CHO; assay: Sensitization of colchicine treated parental (PAR)CHO cells, measured at concentration 0.1(mg/L); format: functional, Cricetulus griseus
[6] = system: KB; assay: The sensitizing capacity of compound for colchicine treatment of multi drug resistance in KB cell was measured at concentration 3.0(mg/L)

CC[C@H](C)[C@H]1C(=O)NCC(=O)N(C)[C@@H](C(C)C)C(=O)N[C@@H](Cc2ccc(OC)cc2)C(=O)O[C@H](C)C(=O)N2CCCC[C@H]2C(=O)N(C)[C@@H](C(C)C)C(=O)N[C@@H](C(C)C)C(=O)N(C)[C@@H](CC(=O)OC(C)(C)C)C(=O)N(C)[C@@H]([C@@H](C)CC)C(=O)N1C (cyclo(G[NMeV]Y(Me)[dLac][Pip][NMeV]V[NMeD](OtBu)[NMeI][NMeI])) gave an Activity [1] of 8.6, an Activity [2] of 1.1 and an Activity [3] of 135. The Activity [4] was 3.8, the Activity [5] was 4.6 and the Chemosensitizing activity [6] was 1.8.
